Data taken from patent US20040034002A1, “3Alpha-hydroxy-3beta-methoxymethyl-substituted steroids and the use thereof” (Euro-Celtique S.A., priority 1999, published 2004).

Assays:
rat = experiment: Rotorod test (sedative/hypnotic activity and duration of action); format: in vivo; conditions: for TD50: Rattus norvegicus, 1 min, read-out: RR TD50 po; for Duration of action: at lowest dose where all animals failed the rotorod test, time until all animals pass again; for Number of animals passing the rotorod test at 240 minutes: given for compounds with duration of action >240 minutes
Description: (§1) Table I below compares the in vitro potencies [ability to inhibit the binding of [^35S]-tert-butylbicyclophosphorothionate (TBPS)], rotorod TD50's (dose at which half of animals tested fail to stay on a rotating rod for 1 minute) and the length of time before all animals tested are able to pass rotorod test (duration of action) of closely structurally related pairs of 3β-methyl and 3β-methoxymethyl steroids. These methods for measuring in vitro and in vivo activity of compounds of the invention are fully described in U.S. Pat. No. 5,232,917. The TBPS assay gives the in vitro potency of compounds whereas the rotorod assay estimates the sedative/hypnotic activity of compounds. Since the duration of action of a compound is dependent on the dose and will be prolonged at higher doses, the duration of action was measured at the lowest dose where all of the animals failed the rotorod test. For compounds with duration of action >240 minutes, the number of animals passing the rotorod test at 240 minutes is given in parentheses. In each pair, the […] steroid has a biological duration action of greater than 240 minutes, while in each of the corresponding 3β-methoxymethyl steroids the duration of action is reduced to 180 minutes or less. […] Thus, specific 3β-methoxymethyl-substituted neuroactive steroids gave unique and unexpected pharmacokinetic profiles, making them especially useful as sedative/hypnotic and anesthetic agents.

[1] = molecular target: [35S]-tert-butylbicyclophosphorothionate (TBPS) binding; experiment: Inhibition of [35S]-TBPS binding (in vitro potency); parameters: species or system rat; conditions: dose of steroid inhibiting 50% of specific binding of [35S]-TBPS
Description: as §1

[2] = po, po, dose at which half of animals fail to stay on a rotating rod for 1 minute

| Structure (SMILES) | TD50 (rat; [2]) [mg/kg] | Duration of action (rat) [min] | IC50 [1] [nM] | Number of animals passing the rotorod test at 240 minutes (rat) | RR TD50 po (rat; po, dose at which half of animals fail to stay on a rotating rod for 1 minute) [mg/kg] | melting point [°C] |
| --- | --- | --- | --- | --- | --- | --- |
| COCC1(O)CCC2(C)C(CCC3C2CCC2(C)C(C(=O)Cn4ncnn4)CCC32)C1 (stereo not drawn) [3α-Hydroxy-3β-methoxymethyl-21-(2′-tetrazolyl)-5α-pregnan-20-one] | 35 | 120 | 24 | – | – | – |
| COCC1(O)CCC2(C)C(CCC3C2CCC2(C)C(C(=O)COc4ccc5c(ccc[n+]5[O-])c4)CCC32)C1 (stereo not drawn) [3α-Hydroxy-3β-methoxymethyl-21-(quinolin-6-yloxy)-5α-pregnan-20-one, N-oxide] | 29 | 84 | 25 | – | – | – |
| CC1(O)CCC2(C)C(CCC3C2CCC2(C)C(C(=O)Cn4ncnn4)CCC32)C1 (stereo not drawn) [3α-Hydroxy-3β-methyl-21-(2′-tetrazolyl)-5α-pregnan-20-one, reference compound] | 4.5 | >240 | 44 | (0/8 | – | – |
| CC1(O)CCC2(C)C(CCC3C2CCC2(C)C(C(=O)COc4ccc5c(ccc[n+]5[O-])c4)CCC32)C1 (stereo not drawn) [3α-Hydroxy-3β-methyl-21-(quinolin-6-yloxy)-5α-pregnan-20-one, N-oxide, reference compound] | 15 | >240 | 46 | (1/8 | – | – |
| COCC1(O)CCC2(C)C(CCC3C2CCC2(C)C(C(=O)Cn4ccnc4)CCC32)C1 (stereo not drawn) [3α-Hydroxy-21-(1′-imidazolyl)-3β-methoxymethyl-5α-pregnan-20] [3α-Hydroxy-21-(1′-imidazolyl)-3β-methoxymethyl-5α-pregnan-20-one] | – | 140 | 138 | – | 28 | – |
| COCC1(O)CCC2(C)C(CCC3C2CCC2(C)C(C(=O)Cn4ccnc4)CCC32)C1 (stereo not drawn) [3α-Hydroxy-21-(1′-imidazolyl)-3β-methoxymethyl-5β-pregnan-20-one] | 30 | – | – | – | – | – |
| COCC1(O)CCC2(C)C(CCC3C2CCC2(C)C(C(=O)Cn4ccnc4)CCC32)C1 (stereo not drawn) [3α-Hydroxy-21-(1′-imidazolyl)-3β-methoxymethyl-5β-pregnan-20] [3α-Hydroxy-21-(1′-imidazolyl)-3β-methoxymethyl-5β-pregnan-20-one] | – | <180 | 174 | – | – | – |
| CC1(O)CCC2(C)C(CCC3C2CCC2(C)C(C(=O)Cn4ccnc4)CCC32)C1 (stereo not drawn) [3α-Hydroxy-21-(1′-imidazolyl)-3β-methyl-5α-pregnan-20-one, reference compound] | 31 | >240 | 97 | (3/8 | – | – |
| COCC1(O)CCC2(C)C(CCC3C2CCC2(C)C(C(=O)CSc4nnc(N)s4)CCC32)C1 (stereo not drawn) [21-(5′-Amino-[1,3,4]-thiadiazol-2-ylthio)-3 α-hydroxy-3β-methoxymethyl-5α-pregnan-20-one] | 40 | <90 | 48 | – | – | 169 to 172 |
